Data on 17 compounds can be found in ChEMBL document CHEMBL1132818, “Use of bicuculline, a GABA antagonist, as a template for the development of a new class of ligands showing positive allosteric modulation of the GABA(A) receptor” (Bioorg Med Chem Lett, 2000).

Experiment [1] concerns the target T1, GABA-A receptor; anion channel (Rattus norvegicus) (UniProt O09028+P15431+P18506+P18508+P19969+P20236+P23574+P23576+P28471+P28473+P30191+P62813+P63079+P63138+Q91ZM7+Q9ES14). As to conditions: Brain, Membrane, 10 nM.
Description: Displacement of [3H]flunitrazepam from GABA-A receptor of rat brain membrane preparations at 10 nM
The target in experiment [2] is T1, GABA-A receptor; anion channel (Rattus norvegicus). The experiment is described as follows: In vitro displacement of [35S]TBPS from Gamma-aminobutyric acid A receptor of rat brain membrane preparations at 10 uM. A general note: Loss of bound radioactivity is the signal in a displacement assay; it reports binding, not function.
Experiment [3] has the same target. The experiment can be described thus: In vitro displacement of [3H]muscimol from Gamma-aminobutyric acid A receptor of rat brain membrane preparations at 100 uM.
For experiment [4], the target named is T2, GABA-A receptor; alpha-1/beta-2/gamma-2 (Rattus norvegicus) (UniProt P18508+P62813+P63138). The settings on record: Oocyte, 1 uM.
Description: Percent GABA current elicited in Xenopus laevis oocytes expressing rat GABA-A alpha-1-beta-2-gamma-2 subunits at 1 uM [(-)inhibition, (+)stimulation]
The target in experiment [5] is T1, GABA-A receptor; anion channel (Rattus norvegicus). The experiment can be described thus: Displacement of [3H]flunitrazepam from GABA-A receptor of rat brain membrane preparations at 10 uM.
The target is the same in experiment [6]. The experiment can be described thus: In vitro displacement of [3H]muscimol from Gamma-aminobutyric acid A receptor of rat brain membrane preparations at 10 uM.
Experiment [7] has the same target. The experiment is described as follows: Displacement of [3H]flunitrazepam from GABA-A receptor of rat brain membrane preparations at 100 uM.
For experiment [8], the target named is T2, GABA-A receptor; alpha-1/beta-2/gamma-2 (Rattus norvegicus). The experiment is described as follows: (§1) Percent GABA current elicited in Xenopus laevis oocytes expressing rat GABA-A alpha-1-beta-2-gamma-2 subunits at 100 uM [(-)inhibition, (+)stimulation]. Format: functional, cell-based. The settings on record: Oocyte.
Experiment [9] addresses T1, GABA-A receptor; anion channel (Rattus norvegicus). The experiment can be described thus: In vitro displacement of [35S]TBPS from Gamma-aminobutyric acid A receptor of rat brain membrane preparations at 100 uM.
The target in experiment [10] is GABA-A receptor; anion channel. The experiment is described as follows: Displacement of [3H]flunitrazepam from GABA-A receptor of rat cerebellar tissue. It is filed as protein-complex assay.
Experiment [11] concerns the target GABA-A receptor; anion channel. The experiment can be described thus: Displacement of [3H]flunitrazepam from GABA-A receptor of rat forebrain tissue.
Experiment [12] addresses T1, GABA-A receptor; anion channel (Rattus norvegicus). The experiment can be described thus: In vitro displacement of [3H]-muscimol from Gamma-aminobutyric acid A receptor of rat brain membrane preparations at 100 uM (Limited solubility).
For experiment [13] the target is unchanged. The experiment is described as follows: Displacement of [3H]flunitrazepam from GABA-A receptor of rat brain membrane preparations at 100uM, Limited solubility.
Experiment [14] shares this target. The experiment is described as follows: In vitro displacement of [35S]TBPS from Gamma-aminobutyric acid A receptor of rat brain membrane preparations at 100 uM (Limited solubility).
The target of experiment [15] is T2, GABA-A receptor; alpha-1/beta-2/gamma-2 (Rattus norvegicus). The experiment can be described thus: Percent GABA current elicited in Xenopus laevis oocytes expressing rat GABA-A alpha-1-beta-2-gamma-2 subunits at 50 uM [(-)inhibition, (+)stimulation]. It is filed as functional, cell-based. As to conditions: Oocyte.
For experiment [16] the target is unchanged. The experiment is described as follows: Percent GABA current elicited in Xenopus laevis oocytes expressing rat GABA-A alpha-1-beta-2-gamma-2 subunits at 10 uM [(-)inhibition, (+)stimulation]. It is filed as functional, cell-based. The settings on record: Oocyte.
Experiment [17] is described as follows: as §1. Format: functional, Oocyte.

pIC50: −log10 of the molar value.

As for `CN1C(=O)CN=C(c2ccccc2)c2cc(Cl)ccc21`, the Displacement in experiment [1] was 33%; in experiment [2], 25%; in experiment [3], -13%. The GABA current in experiment [4] was found to be 300%.

Turning to `COc1cc2c(cc1OC)[C@@H]([C@H]1C=CC(=O)O1)N(C(=O)OCc1ccccc1)CC2`, the Displacement in experiment [5] came out at 15%; in [6] it was 7%; in [7] it was 51%; in experiment [9] it was 50%; in experiment [2], 5%; in [3], 10%. For the same compound, the GABA current in [8] is 43%.

`CC1=C[C@@H]([C@@H]2c3ccccc3CCN2C(=O)OCc2ccccc2)OC1=O`: the pIC50 – broadly, the IC50 on a negative log10 scale, so that one unit is a factor of ten – is 5.15 in experiment [10] and 4.92 in experiment [11]. Besides, the Displacement was 43% in [5], -7% in [6], 16% in experiment [2] and “Insoluble” in experiment [12]. The GABA current in experiment [8] was determined as 130%.

Turning to `CN1CCc2cc3c(cc2[C@H]1[C@@H]1OC(=O)c2c1ccc1c2OCO1)OCO3`, the Displacement was 45% in experiment [6], 7% in [7] and -1% in experiment [9]. For the same compound, in experiment [8], the GABA current was -100%.

Regarding `O=C1C=C[C@@H]([C@@H]2c3ccccc3CCN2C(=O)OCc2ccccc2)O1`, the Displacement in experiment [5] is 93%; in experiment [6] it was -12%; in [9], 82%; in experiment [2] it was 14%; in [3], -13%. The GABA current in experiment [8] amounted to 281%.

As to `COc1cc2c(cc1OC)[C@@H]([C@@H]1C=C(C)C(=O)O1)N(C(=O)OCc1ccccc1)CC2`, the Displacement in [7] was 4%; in experiment [9], 11%; in experiment [3], -1%. Besides, in experiment [8], the GABA current amounted to 24%.

On to `CC1=C[C@H]([C@@H]2c3ccccc3CCN2C(=O)OCc2ccccc2)OC1=O`, for which the pIC50 was 4.77 in [10] and 4.60 in experiment [11]. Moreover, the Displacement in experiment [5] is 27%; in [6] it was -4%; in [2], 20%; in [13] it was “Insoluble”; in [12], “Insoluble”. The GABA current in experiment [8] came to 208%.

With `CC1=C[C@H]([C@@H]2c3cc4c(cc3CCN2C)OCO4)OC1=O`, the Displacement was 6% in [5]; 30% in experiment [7]; 3% in experiment [9]; 1% in experiment [2]; 5% in [3]. In [8], the GABA current was -7%.

On to `O=C1C=C[C@H]([C@@H]2c3cc4c(cc3CCN2C(=O)OCc2ccccc2)OCO4)O1`, for which the Displacement entry in experiment [14] is “Insoluble”; in experiment [5], 27%; in [6] it was -7%; in [2], 18%; in [12], “Insoluble”. The GABA current in experiment [15] worked out at 128%.

With `O=C1CC[C@@H]([C@@H]2c3ccccc3CCN2C(=O)OCc2ccccc2)O1`, the pIC50 in experiment [10] is 7.22; in [11], 6.80. For the same compound, the Displacement is 96% in [5]; -18% in experiment [6]; 82% in experiment [9]; 11% in [2]; -2% in [3]. Besides, the GABA current turned out to be 351% in experiment [8] and 111% in experiment [16].

In the case of `COc1cc2c(cc1OC)[C@@H]([C@H]1C=C(C)C(=O)O1)N(C)CC2`, the Displacement in [7] is 12%; in [9], 4%; in experiment [3] it was -1%. Moreover, in [8], the GABA current was -10%.

In the case of `COc1cc2c(cc1OC)[C@@H]([C@@H]1C=C(C)C(=O)O1)N(C)CC2`, the values for the Displacement in experiment [7], in experiment [9] and in experiment [3] were 8%, 2% and 4%, respectively. Also, the GABA current in [8] is -8%.

For the compound `CC1=C[C@@H]([C@@H]2c3cc4c(cc3CCN2C)OCO4)OC1=O`, the Displacement in [7] was found to be 21%; in [9], 3%; in experiment [3], 3%. In experiment [17], the GABA current is recorded as -3%.

For `O=C1C=C[C@@H]([C@@H]2c3cc4c(cc3CCN2C(=O)OCc2ccccc2)OCO4)O1`, the Displacement entry is “Insoluble” in experiment [14]; 20% in experiment [5]; -5% in experiment [6]; 19% in experiment [2]; “Insoluble” in experiment [12]. Also, the GABA current in [15] turned out to be 215%.

For the compound `O=C1C=C[C@H]([C@@H]2c3ccccc3CCN2C(=O)OCc2ccccc2)O1`, the Displacement in experiment [5] is 51%; in experiment [6], -9%; in experiment [9], 85%; in [2], 18%; in experiment [3], -2%. In addition, the GABA current in experiment [8] was 225%.

Consider `COc1cc2c(cc1OC)[C@@H]([C@@H]1C=CC(=O)O1)N(C(=O)OCc1ccccc1)CC2`, for which the Displacement was 5% in experiment [5]; 15% in experiment [7]; 47% in experiment [9]; 5% in experiment [2]; -1% in experiment [3]. Moreover, the GABA current in [8] turned out to be 20%.

Consider `COc1cc2c(cc1OC)[C@@H]([C@H]1C=C(C)C(=O)O1)N(C(=O)OCc1ccccc1)CC2`, for which the Displacement was 31% in [7], 63% in [9] and -23% in experiment [3]. In addition, the GABA current in experiment [8] amounted to 60%.
